Assay results taken from US20250230193A1, “CYCLIC COMPOUND HAVING SELECTIVE KRAS INHIBITORY EFFECT ON HRAS AND NRAS” (CHUGAI SEIYAKU KABUSHIKI KAISHA, priority 2022, published 2025).

Assays:
[1] = target: GDP-bound HRAS wild-type protein (Homo sapiens, UniProt P01112); assay: Binding to HRAS by surface plasmon resonance (SPR), Single Cycle Kinetics; settings: KD ratio HRAS/KRAS, SPR, GDP-bound wild-type proteins
[2] = target: GDP-bound NRAS wild-type protein (Homo sapiens, UniProt P01111); assay: Binding to NRAS by surface plasmon resonance (SPR), Single Cycle Kinetics; settings: KD ratio NRAS/KRAS, SPR, GDP-bound wild-type proteins
Sequence of GDP-bound NRAS wild-type protein (P01111 whole entry): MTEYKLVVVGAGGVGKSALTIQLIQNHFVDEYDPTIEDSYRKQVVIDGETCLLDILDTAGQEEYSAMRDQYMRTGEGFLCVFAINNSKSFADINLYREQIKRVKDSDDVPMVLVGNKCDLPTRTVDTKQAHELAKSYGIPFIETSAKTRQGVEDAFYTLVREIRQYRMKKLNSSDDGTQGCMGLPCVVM

Sequence of GDP-bound HRAS wild-type protein (P01112 whole entry): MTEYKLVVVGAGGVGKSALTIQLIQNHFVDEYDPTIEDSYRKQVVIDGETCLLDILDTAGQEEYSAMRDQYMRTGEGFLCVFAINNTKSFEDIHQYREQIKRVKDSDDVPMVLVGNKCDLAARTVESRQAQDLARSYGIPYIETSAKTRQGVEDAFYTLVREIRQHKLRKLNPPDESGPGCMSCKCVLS

SMILES: CCO[C@@H]1C[C@H]2C(=O)NC3(CC(C)(C)C3)C(=O)N(C)[C@@H](C3CCCC3)C(=O)N(C)[C@H](C(=O)N3CCCC3)CC(=O)N(C)[C@H]3CCCCCc4ccc(cc4)C[C@@H](C(=O)N(C)CC(=O)N[C@@H](CCc4ccc(C(F)(F)F)c(OC)c4)C(=O)N2C1)N1CC/C=C\C[C@@H](C1=O)N(C)C(=O)CN(C)C(=O)[C@H]([C@@H](C)CC)NC3=O [PP3037, (1S,7S,11R,13S,19S,22S,26S,29S,35S,37Z)-19-cyclopentyl-11-ethoxy-7-[2-[3-methoxy-4-(trifluoromethyl)phenyl]ethyl]-3,3′,3′,18,21,25,31,34-octamethyl-29-[(1S)-1-methylpropyl]-22-(pyrrolidine-1-carbonyl)spiro[3,6,9,15,18,21,25,28,31,34,41-undecazapentacyclo[24.15.10.2^43,46.1^35,41.0^9,13]tetrapentaconta-37,43(53),44,46(52)-tetraene-16,1′-cyclobutane]-2,5,8,14,17,20,24,27,30,33,54-undecone]
- HRAS/KRAS (ratio of KD value with respect to GDP-bound HRAS wild-type protein to KD value with respect to KRAS) [1]: B (a compound having 3 or more and less than 10 is denoted as B)
- NRAS/KRAS (ratio of KD value with respect to GDP-bound NRAS wild-type protein to KD value with respect to KRAS) [2]: A (a compound having 10 or more and less than 20 is denoted as A)

SMILES: CCCO[C@@H]1C[C@H]2C(=O)NC3(CC(C)(C)C3)C(=O)N(C)[C@@H](C(CC)CC)C(=O)N(C)[C@H](C(=O)N(C)C)CC(=O)N(C)[C@H]3CCCCc4ccc(cc4)C[C@@H](C(=O)N(C)CC(=O)N[C@@H](CCc4ccc(C(F)(F)F)c(OC)c4)C(=O)N2C1)N1CC/C=C\C[C@@H](C1=O)N(C)C(=O)CN(C)C(=O)[C@H]([C@@H](C)CC)NC3=O [PP3038]
- HRAS/KRAS (ratio of KD value with respect to GDP-bound HRAS wild-type protein to KD value with respect to KRAS) [1]: A (a compound having 10 or more and less than 20 is denoted as A)
- NRAS/KRAS (ratio of KD value with respect to GDP-bound NRAS wild-type protein to KD value with respect to KRAS) [2]: A (a compound having 10 or more and less than 20 is denoted as A)

SMILES: CCO[C@@H]1C[C@H]2C(=O)NC3(CCC3)C(=O)N(C)[C@@H](C(CC)CC)C(=O)N(C)[C@H](C(=O)N3CCCCC3)CC(=O)N(C)[C@H]3CCC/C=C/c4ccc(cc4)C[C@@H](C(=O)N(C)CC(=O)N[C@@H](CCc4ccc(Cl)c(Cl)c4)C(=O)N2C1)N1CC/C=C\C[C@@H](C1=O)N(C)C(=O)CN(C1CC1)C(=O)[C@H]([C@@H](C)CC)NC3=O [PP3039]
- HRAS/KRAS (ratio of KD value with respect to GDP-bound HRAS wild-type protein to KD value with respect to KRAS) [1]: A (a compound having 10 or more and less than 20 is denoted as A)
- NRAS/KRAS (ratio of KD value with respect to GDP-bound NRAS wild-type protein to KD value with respect to KRAS) [2]: AA (a compound having 20 or more is denoted as AA)

SMILES: CCO[C@@H]1C[C@H]2C(=O)NC3(CCC3)C(=O)N(C)[C@@H](C(CC)CC)C(=O)N(C)[C@H](C(=O)N3CCCC3)CC(=O)N(C)[C@H]3CCC/C=C/c4ccc(cc4)C[C@@H](C(=O)N(C)CC(=O)N[C@@H](CCc4ccc(Cl)c(Cl)c4)C(=O)N2C1)N1CC/C=C\C[C@@H](C1=O)N(C)C(=O)CN(C1CC1)C(=O)[C@H]([C@@H](C)CC)NC3=O [PP3040]
- HRAS/KRAS (ratio of KD value with respect to GDP-bound HRAS wild-type protein to KD value with respect to KRAS) [1]: A (a compound having 10 or more and less than 20 is denoted as A)
- NRAS/KRAS (ratio of KD value with respect to GDP-bound NRAS wild-type protein to KD value with respect to KRAS) [2]: AA (a compound having 20 or more is denoted as AA)

SMILES: CCO[C@@H]1C[C@H]2C(=O)NC3(CC(C)(C)C3)C(=O)N(C)[C@@H](C(CC)CC)C(=O)N(C)[C@H](C(=O)N(C)C)CC(=O)N(C)[C@H]3CCCC/C=C/c4ccc(cc4)C[C@@H](C(=O)N(C)CC(=O)N[C@@H](CCc4cc(F)c(C(F)(F)F)c(F)c4)C(=O)N2C1)N1CC/C=C\C[C@@H](C1=O)N(C)C(=O)CN(C)C(=O)[C@H]([C@@H](C)CC)NC3=O [PP3044]
- HRAS/KRAS (ratio of KD value with respect to GDP-bound HRAS wild-type protein to KD value with respect to KRAS) [1]: A (a compound having 10 or more and less than 20 is denoted as A)
- NRAS/KRAS (ratio of KD value with respect to GDP-bound NRAS wild-type protein to KD value with respect to KRAS) [2]: AA (a compound having 20 or more is denoted as AA)

SMILES: CCO[C@@H]1C[C@H]2C(=O)NC3(CC(C)(C)C3)C(=O)N(C)[C@@H](C(CC)CC)C(=O)N(C)[C@H](C(=O)N(C)C)CC(=O)N(C)[C@H]3CCCC/C=C/c4ccc(cc4)C[C@@H](C(=O)N(C)CC(=O)N[C@@H](CCc4ccc(Cl)c(Cl)c4)C(=O)N2C1)N1CC/C=C\C[C@@H](C1=O)N(C)C(=O)CN(C)C(=O)[C@H]([C@@H](C)CC)NC3=O [PP3045]
- HRAS/KRAS (ratio of KD value with respect to GDP-bound HRAS wild-type protein to KD value with respect to KRAS) [1]: A (a compound having 10 or more and less than 20 is denoted as A)
- NRAS/KRAS (ratio of KD value with respect to GDP-bound NRAS wild-type protein to KD value with respect to KRAS) [2]: AA (a compound having 20 or more is denoted as AA)

SMILES: CCO[C@@H]1C[C@H]2C(=O)NC3(CCC3)C(=O)N(C)[C@@H](C(CC)CC)C(=O)N(C)[C@H](C(=O)N3CCCCC3)CC(=O)N(C)[C@H]3CCCC/C=C/c4ccc(cc4)C[C@@H](C(=O)N(C)CC(=O)N[C@@H](CCc4ccc(Cl)c(Cl)c4)C(=O)N2C1)N1CC/C=C\C[C@@H](C1=O)N(C)C(=O)CN(C)C(=O)[C@H]([C@@H](C)CC)NC3=O [PP3046]
- HRAS/KRAS (ratio of KD value with respect to GDP-bound HRAS wild-type protein to KD value with respect to KRAS) [1]: A (a compound having 10 or more and less than 20 is denoted as A)
- NRAS/KRAS (ratio of KD value with respect to GDP-bound NRAS wild-type protein to KD value with respect to KRAS) [2]: AA (a compound having 20 or more is denoted as AA)

SMILES: CCO[C@@H]1C[C@H]2C(=O)NC3(CCC3)C(=O)N(C)[C@@H](C(CC)CC)C(=O)N(C)[C@H](C(=O)N3CCCC3)CC(=O)N(C)[C@H]3CCCC/C=C/c4ccc(cc4)C[C@@H](C(=O)N(C)CC(=O)N[C@@H](CCc4ccc(Cl)c(Cl)c4)C(=O)N2C1)N1CC/C=C\C[C@@H](C1=O)N(C)C(=O)CN(C)C(=O)[C@H]([C@@H](C)CC)NC3=O [PP3047, (1S,7S,11R,13S,19S,22S,26S,29S,35S,37Z,47E)-7-[2-(3,4-dichlorophenyl)ethyl]-11-ethoxy-19-(1-ethylpropyl)-3,18,21,25,31,34-hexamethyl-29-[(1S)-1-methylpropyl]-22-(pyrrolidine-1-carbonyl)spiro[3,6,9,15,18,21,25,28,31,34,41-undecazapentacyclo[24.15.11.2^43,46.1^35,41.0^9,13]pentapentaconta-37,43(54),44,46(53),47-pentaene-16,1′-cyclobutane]-2,5,8,14,17,20,24,27,30,33,55-undecone]
- HRAS/KRAS (ratio of KD value with respect to GDP-bound HRAS wild-type protein to KD value with respect to KRAS) [1]: A (a compound having 10 or more and less than 20 is denoted as A)
- NRAS/KRAS (ratio of KD value with respect to GDP-bound NRAS wild-type protein to KD value with respect to KRAS) [2]: AA (a compound having 20 or more is denoted as AA)

SMILES: CCO[C@@H]1C[C@H]2C(=O)NC3(CC(C)(C)C3)C(=O)N(C)[C@@H](C(CC)CC)C(=O)N(C)[C@H](C(=O)N(C)C)CC(=O)N(C)[C@H]3CCCCC/C=C/c4ccc(cc4)C[C@@H](C(=O)N(C)CC(=O)N[C@@H](CCc4cc(F)c(C(F)(F)F)c(F)c4)C(=O)N2C1)N1CC/C=C\C[C@@H](C1=O)N(C)C(=O)CN(C)C(=O)[C@H]([C@@H](C)CC)NC3=O [PP3048]
- HRAS/KRAS (ratio of KD value with respect to GDP-bound HRAS wild-type protein to KD value with respect to KRAS) [1]: A (a compound having 10 or more and less than 20 is denoted as A)
- NRAS/KRAS (ratio of KD value with respect to GDP-bound NRAS wild-type protein to KD value with respect to KRAS) [2]: A (a compound having 10 or more and less than 20 is denoted as A)

SMILES: CCO[C@@H]1C[C@H]2C(=O)NC3(CCC3)C(=O)N(C)[C@@H](C3CCCC3)C(=O)N(C)[C@H](C(=O)N3CCCC3)CC(=O)N(C)[C@H]3CCCCC/C=C/c4ccc(cc4)C[C@@H](C(=O)N(C)CC(=O)N[C@@H](CCc4ccc(Cl)c(Cl)c4)C(=O)N2C1)N1CC/C=C\C[C@@H](C1=O)N(C)C(=O)CN(C)C(=O)[C@H]([C@@H](C)CC)NC3=O [PP3049]
- HRAS/KRAS (ratio of KD value with respect to GDP-bound HRAS wild-type protein to KD value with respect to KRAS) [1]: A (a compound having 10 or more and less than 20 is denoted as A)
- NRAS/KRAS (ratio of KD value with respect to GDP-bound NRAS wild-type protein to KD value with respect to KRAS) [2]: AA (a compound having 20 or more is denoted as AA)

SMILES: CCO[C@@H]1C[C@H]2C(=O)NC3(CC(C)(C)C3)C(=O)N(C)[C@@H](C(CC)CC)C(=O)N(C)[C@H](C(=O)N(C)C)CC(=O)N(C)[C@H]3CCCCC/C=C/c4ccc(cc4)C[C@@H](C(=O)N(C)CC(=O)N[C@@H](CCc4ccc(Cl)c(Cl)c4)C(=O)N2C1)N1CC/C=C\C[C@@H](C1=O)N(C)C(=O)CN(C)C(=O)[C@H]([C@@H](C)CC)NC3=O [PP3050]
- HRAS/KRAS (ratio of KD value with respect to GDP-bound HRAS wild-type protein to KD value with respect to KRAS) [1]: A (a compound having 10 or more and less than 20 is denoted as A)
- NRAS/KRAS (ratio of KD value with respect to GDP-bound NRAS wild-type protein to KD value with respect to KRAS) [2]: AA (a compound having 20 or more is denoted as AA)

SMILES: CCO[C@@H]1C[C@H]2C(=O)NC3(CCC3)C(=O)N(C)[C@@H](C(CC)CC)C(=O)N(C)[C@H](C(=O)N3CCCCC3)CC(=O)N(C)[C@H]3CCCCC/C=C/c4ccc(cc4)C[C@@H](C(=O)N(C)CC(=O)N[C@@H](CCc4ccc(Cl)c(Cl)c4)C(=O)N2C1)N1CC/C=C\C[C@@H](C1=O)N(C)C(=O)CN(C)C(=O)[C@H]([C@@H](C)CC)NC3=O [PP3051]
- HRAS/KRAS (ratio of KD value with respect to GDP-bound HRAS wild-type protein to KD value with respect to KRAS) [1]: A (a compound having 10 or more and less than 20 is denoted as A)
- NRAS/KRAS (ratio of KD value with respect to GDP-bound NRAS wild-type protein to KD value with respect to KRAS) [2]: AA (a compound having 20 or more is denoted as AA)

SMILES: CCO[C@@H]1C[C@H]2C(=O)NC3(CCC3)C(=O)N(C)[C@@H](C(CC)CC)C(=O)N(C)[C@H](C(=O)N3CCCC3)CC(=O)N(C)[C@H]3CCCCC/C=C/c4ccc(cc4)C[C@@H](C(=O)N(C)CC(=O)N[C@@H](CCc4ccc(Cl)c(Cl)c4)C(=O)N2C1)N1CC/C=C\C[C@@H](C1=O)N(C)C(=O)CN(C)C(=O)[C@H]([C@@H](C)CC)NC3=O [PP3052]
- HRAS/KRAS (ratio of KD value with respect to GDP-bound HRAS wild-type protein to KD value with respect to KRAS) [1]: A (a compound having 10 or more and less than 20 is denoted as A)
- NRAS/KRAS (ratio of KD value with respect to GDP-bound NRAS wild-type protein to KD value with respect to KRAS) [2]: AA (a compound having 20 or more is denoted as AA)

SMILES: CC[C@H](C)[C@@H]1NC(=O)[C@@H]2CCC/C=C/c3ccc(cc3)C[C@@H](C(=O)N(C)CC(=O)N[C@@H](CCc3ccc(Cl)c(Cl)c3)C(=O)N3C[C@H](OC4CCC4)C[C@H]3C(=O)NC3(CC(C)(C)C3)C(=O)N(C)[C@@H](C3CCCC3)C(=O)N(C)[C@H](C(=O)N3CCCC3)CC(=O)N2C)N2CC/C=C\C[C@@H](C2=O)N(C)C(=O)CN(C)C1=O [PP3053]
- HRAS/KRAS (ratio of KD value with respect to GDP-bound HRAS wild-type protein to KD value with respect to KRAS) [1]: A (a compound having 10 or more and less than 20 is denoted as A)
- NRAS/KRAS (ratio of KD value with respect to GDP-bound NRAS wild-type protein to KD value with respect to KRAS) [2]: A (a compound having 10 or more and less than 20 is denoted as A)
